Source: ChEMBL document CHEMBL4765428, “Design, synthesis, and electrophysiological evaluation of NS6740 derivatives: Exploration of the structure-activity relationship for alpha7 nicotinic acetylcholine receptor silent activation” (Eur J Med Chem, 2020)
Active and inactive are the calls of the source. No cut-off for these calls is given here.

Key:
[1] = biological target: T1, Neuronal acetylcholine receptor subunit alpha-7 (Homo sapiens, UniProt P36544); assay: (§1) Partial agonist activity at human alpha7 nAChR expressed in Xenopus laevis oocytes assessed as inhibition of Ach response at 10 to 30 uM at -60 mV holding potential by measuring net charge preincubated with compound followed by Ach addition by two electrode voltage-clamp assay; assay type: cell-based; settings: Oocyte, dose 10-30 µM
T1 sequence (P36544 whole entry): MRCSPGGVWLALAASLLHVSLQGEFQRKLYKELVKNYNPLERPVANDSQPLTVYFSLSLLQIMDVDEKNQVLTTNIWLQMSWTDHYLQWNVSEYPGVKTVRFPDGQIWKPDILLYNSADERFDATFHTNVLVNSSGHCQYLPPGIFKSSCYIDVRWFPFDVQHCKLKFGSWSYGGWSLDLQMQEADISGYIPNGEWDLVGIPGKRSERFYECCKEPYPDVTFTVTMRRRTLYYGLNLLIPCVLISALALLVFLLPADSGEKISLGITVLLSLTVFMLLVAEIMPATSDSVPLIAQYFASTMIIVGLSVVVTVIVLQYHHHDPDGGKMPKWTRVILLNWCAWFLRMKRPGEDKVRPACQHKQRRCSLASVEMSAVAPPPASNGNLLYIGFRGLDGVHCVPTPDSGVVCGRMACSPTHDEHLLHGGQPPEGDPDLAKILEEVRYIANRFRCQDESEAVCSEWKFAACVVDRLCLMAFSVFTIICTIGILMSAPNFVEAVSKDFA

[2] = biological target: T1, Neuronal acetylcholine receptor subunit alpha-7; assay: as §1, with “residual potentiation” for “inhibition”, “10” for “10 to 30”, “addition after PNU-120596 addition” for “addition”; assay type: cell-based; settings: Oocyte
[3] = biological target: T1, Neuronal acetylcholine receptor subunit alpha-7; assay: Partial agonist activity at human alpha7 nAChR expressed in Xenopus laevis oocytes at 10 uM at -60 mV holding potential by measuring net charge by two electrode voltage-clamp assay; assay type: cell-based; settings: Oocyte
[4] = biological target: T1, Neuronal acetylcholine receptor subunit alpha-7; assay: Partial agonist activity at human alpha7 nAChR expressed in Xenopus laevis oocytes assessed as direct potentiation of Ach response at 10 uM at -60 mV holding potential by measuring net charge co-application of compound and PNU-120596 by two electrode voltage-clamp assay; assay type: cell-based; settings: Oocyte
[5] = biological target: T1, Neuronal acetylcholine receptor subunit alpha-7; assay: Partial agonist activity at human alpha7 nAChR expressed in Xenopus laevis oocytes at -60 mV holding potential by two electrode voltage-clamp assay; assay type: cell-based, Oocyte; settings: for Imax: Oocyte, filed as partial agonist
[6] = biological target: T1, Neuronal acetylcholine receptor subunit alpha-7; assay: Partial agonist activity at human alpha7 nAChR expressed in Xenopus laevis oocytes at 1 to 30 uM at -60 mV holding potential by two electrode voltage-clamp assay; assay type: cell-based; settings: Oocyte, dose 1-30 µM
[7] = biological target: T1, Neuronal acetylcholine receptor subunit alpha-7; assay: as §1, with “residual potentiation” for “inhibition”, “3” for “10 to 30”, “addition after PNU-120596 addition” for “addition”; assay type: cell-based; settings: Oocyte, filed as partial agonist
[8] = biological target: T1, Neuronal acetylcholine receptor subunit alpha-7; assay: as §1, with “residual potentiation” for “inhibition”, “at” for “at 10 to”, “addition after PNU-120596 addition” for “addition”; assay type: cell-based; settings: Oocyte, filed as partial agonist
[9] = biological target: T1, Neuronal acetylcholine receptor subunit alpha-7; assay: Partial agonist activity at human alpha7 nAChR expressed in Xenopus laevis oocytes assessed as inhibition of Ach response at 30 uM at -60 mV holding potential by measuring net charge preincubated with compound followed by Ach stimulation by two electrode voltage-clamp assay; assay type: cell-based; settings: Oocyte, filed as partial agonist
[10] = biological target: T1, Neuronal acetylcholine receptor subunit alpha-7; assay: Partial agonist activity at human alpha7 nAChR expressed in Xenopus laevis oocytes assessed as direct potentiation of Ach response at 30 uM at -60 mV holding potential by measuring net charge co-application of compound and PNU-120596 by two electrode voltage-clamp assay; assay type: cell-based; settings: Oocyte, filed as partial agonist
[11] = biological target: T1, Neuronal acetylcholine receptor subunit alpha-7; assay: Partial agonist activity at human alpha7 nAChR expressed in Xenopus laevis oocytes assessed as inhibition of Ach response at 3 uM at -60 mV holding potential by measuring net charge preincubated with compound followed by Ach stimulation by two electrode voltage-clamp assay; assay type: cell-based; settings: Oocyte

Compound | Activity ([1]; filed as partial agonist) | Activity ([2]; filed as partial agonist) | Activity [3] | Activity ([3]; filed as partial agonist) | Activity ([4]; filed as partial agonist) | Activity [1] | Activity [2] | further results
Cc1cccc(-c2ccc(C(=O)N3CCN4CCC3CC4)o2)c1 | 0.2 | 30.7 | inactive | – | – | – | – | –
O=C(c1ccc(-c2ccoc2)o1)N1CCN2CCC1CC2 | Active | Active | – | Active | – | – | – | –
C[N+]12CCC(CC1)N(C(=O)c1ccc(-c3cccc(C(F)(F)F)c3)o1)CC2 | – | 1.39 | – | 0.79 | Active | – | – | EC50 [5]: 322 nM; Imax [5]: 0.81
O=C(c1ccc(-c2cccc(C(F)(F)F)c2)o1)N1CC2CCN(CC2)C1 | – | – | inactive | – | – | inactive | inactive | Activity [4]: inactive
C1CN2CCC(CC2)N1 | – | – | inactive | – | – | inactive | inactive | Activity [4]: inactive
O=C(c1ccc(-c2cccc(Cl)c2)o1)N1CCN2CCC1CC2 | – | Active | inactive | – | – | 0.04 | – | –
O=C(c1ccc(-c2cccc(C(F)(F)F)c2)o1)N1C[C@H]2C[C@@H]1CN2 | – | – | inactive | – | 43.7 | inactive | inactive | –
FC(F)(F)c1cccc(-c2ccc(CN3CCN4CCC3CC4)o2)c1 | – | – | inactive | – | – | – | inactive | Activity [4]: inactive
CCN1CCN2CCC1CC2 | – | – | inactive | – | – | inactive | – | Activity [4]: inactive
O=C(c1ccc(-c2cccc([N+](=O)[O-])c2)o1)N1CCN2CCC1CC2 | – | 4.78 | inactive | – | 12.2 | inactive | – | –
O=C(c1ccc(-c2cccc(C(F)(F)F)c2)o1)N1CCN2CCC1CC2 | 0.19 | 111 | – | – | – | – | – | Activity [6]: inactive; Activity [7]: 123; Activity [8]: 57.4; Activity [9]: 0.18; Activity [10]: 2.73; Activity [11]: inactive
O=C(c1ccc(-c2cccc(Br)c2)o1)N1CCN2CCC1CC2 | Active | Active | inactive | – | – | – | – | –
O=C(c1ccc(-c2cccc(O)c2)o1)N1CCN2CCC1CC2 | – | Active | inactive | – | – | inactive | – | –
O=C(c1ccc(-c2cccc(C(F)(F)F)c2)o1)N1C[C@@H]2C[C@H]1CN2 | – | – | inactive | – | 15.2 | inactive | inactive | –
Nc1cccc(-c2ccc(C(=O)N3CCN4CCC3CC4)o2)c1 | 0.5 | – | – | 0.1 | 24.6 | – | – | –
O=C(c1ccc(-c2cccc(I)c2)o1)N1CCN2CCC1CC2 | Active | Active | inactive | – | – | – | – | –
CC(=O)N1CCN2CCC1CC2 | – | – | inactive | – | Active | – | inactive | –
O=C(c1ccc(-c2cccc(F)c2)o1)N1CCN2CCC1CC2 | Active | Active | inactive | – | – | – | – | –
O=C(c1ccc(-c2ccc(C(F)(F)F)cc2)o1)N1CCN2CCC1CC2 | 0.64 | 3.23 | – | 0.4 | 6.25 | – | – | –
O=C(c1ccc(-c2cncc3ccccc23)o1)N1CCN2CCC1CC2 | 0.94 | – | – | 0.11 | 20.4 | – | inactive | –
O=C(c1ccc(-c2ccccc2)o1)N1CCN2CCC1CC2 | 0.14 | 18.3 | – | 0.54 | – | – | – | –
O=C(c1ccco1)N1CCN2CCC1CC2 | – | – | – | 0.71 | Active | – | inactive | EC50 [5]: 764 nM; Imax [5]: 0.71
O=C(c1ccc(-c2ccc3ccccc3c2)o1)N1CCN2CCC1CC2 | 1.18 | – | – | 0.15 | – | – | inactive | Activity [4]: inactive
CCN(CC)C(=O)c1ccc(-c2cccc(C(F)(F)F)c2)o1 | – | – | inactive | – | – | inactive | inactive | Activity [4]: inactive
